In patent US20250098678A1, “METHOD OF CONTROLLING FUNGI” (UPL CORPORATION LIMITED, priority 2022, published 2025):

Legend:
[1] = test system: Plasmopara halstedii; test: Anti-fungal activity of treated sunflower seeds against Plasmopara halstedii (seed treatment, % incidence); format: in vivo; conditions: for % Incidence: sunflower seed treatment, 12 DAS, inoculated with P. halstedii
Procedure: Example 1: Evaluation of Anti-Fungal Activity of Sunflower Seeds Treated with Cyazofamid Against Plasmopara halstedii One tray for each treatment was filled with perlite that was covered with two layers of watered paper. Treated seeds were placed between the layers under sterile conditions and incubated at 22° C. to 24° C., 100% relative humidity (RH) for 48 h. Zoosporangia from cotyledons of sunflower plants previously infected by an isolate of P. halstedii were removed with deionized water. The suspension was filtered through two layers of sterile cheesecloth and the inoculum concentration was adjusted to 2×10^5 zoosporangia/ml. Treated and germinated seeds were immersed in the zoosporangial suspension for 5 hours. Bioassays were then designed and conducted under controlled growth conditions. Five pots per treatment were filled with perlite and nine sunflower seeds were sown in each pot. Plants were grown at 19° C., 70-100% relative humidity and a 10 h dark/14 h light photoperiod for 12 days. The seed arrangement was made as 50 seeds/plot (pot10×10 cm). The treatments used are depicted below. [table] The % incidence of fungal disease caused by Plasmapora halstedii was observed 12 DAS (days after sowing seeds).

[2] = test system: Pythium ultimum; test: Anti-fungal activity of treated seeds against Pythium ultimum (field trials, patch score); format: in vivo; conditions: for P. ultimum patch score: seed treatment, field trial
Excerpt: Example 2: Evaluation of Anti-Fungal Activity of Maize Seeds Treated with Cyazofamid Against Pythium ultimum The present inventors have determined the % pathogen control of Pythium ultimum control in […] treated with cyazofamid in field trials. The treatments employed and the results have been depicted in table 3 below. [table]

**Q.** `Cc1ccc(-c2c(Cl)nc(C#N)n2S(=O)(=O)N(C)C)cc1` [Cyazofamid, 4-chloro-2-cyano-N,N-dimethyl-5-p-tolylimidazole-1-sulfonamide] was tested. Which “% Incidence” value ([1]; application rate 50 g/100/kg) did it give?
**A.** Its value is 0%.

**Q.** And the “% Incidence” value ([1]; application rate 100 g/100/kg)?
**A.** Its value is 0%.

**Q.** And the “P. ultimum patch score indicating the severity of the fungal disease” value ([2]; compared to the untreated control, result in words)?
**A.** Its value is “significantly low”.

**Q.** What about the “P. ultimum patch score” value ([2]; 10 g.ai/100 kg, 25 ml/100 kg seeds) of the same molecule?
**A.** Its value is 1.5 b.

**Q.** And the “P. ultimum patch score” value ([2]; 20 g.ai/100 kg, 50 ml/100 kg seeds)?
**A.** The value was 1.5 b.

**Q.** And the “P. ultimum patch score” value ([2]; 30 g.ai/100 kg, 75 ml/100 kg seeds)?
**A.** Its value is 1.5 b.

**Q.** And the “P. ultimum patch score” value ([2]; 50 g.ai/100 kg, 125 ml/100 kg seeds)?
**A.** The value was 1.5 b.

**Q.** What about the “P. ultimum patch score” value ([2]; 100 g.ai/100 kg, 250 ml/100 kg seeds) of the same molecule?
**A.** Its value is 1.3 b.

**Q.** For `COCC(=O)N(c1c(C)cccc1C)C(C)C(=O)OC` (centres unmarked) [Metalaxyl], which “% Incidence” value ([1]; application rate 35 g/100/kg) is on record?
**A.** The value was 53.49%.

**Q.** What about the “% Incidence” value ([1]; application rate 60 g/100/kg) of the same molecule?
**A.** The value was 62.24%.

**Q.** What about the “occurrence of fungal disease” value ([1]; treated sunflower seeds, result in words) of the same molecule?
**A.** The value was “high”.
